Laboratory results published in patent publication US7781565B2 (priority 2006, dated 2010).

What follows are substances tested on NCI-60 cell lines.
Type: cell-based, human

Substance | Cell Line with which the peptide (and its tripeptide motif) is associated | Cell Line (NCI-60 cell line the peptide and its motif are associated with) | Cell Line (NCI-60 cell line the peptide is associated with) | Cell Line the peptide is associated with (peptide recovered from phage library selection on this NCI-60 cell line)
GLVGFTG | Hop-62-Lung | – | – | –
TTQLRGV | – | UACC62 Melanoma | – | –
AGSGFPF | – | – | HT-29 Colon | –
GEHLGGS | SR Leukemia | – | – | –
VGRLAKG | Hop-62-Lung | – | – | –
RHGVRSK | – | – | SF-295 CNS | –
LRSGSLG | – | – | SF-268 CNS | –
VLTRAST | – | – | HCC-2998-Colon | –
SHHRSSI | – | – | – | SN12C Renal
VMLLRPE | HL-60-Leukemia | – | – | –
VVGGRRT | – | – | – | HS 578 T Breast
PLRVDNL | H23-Lung | – | – | –
VWGVGGS | K-562-Leukemia | – | – | –
DGVSSDY | – | – | COLO-205-Colon | –
GGLSVDL | EKVX-Lung | – | – | –
SRLSYWQ | – | – | LOX-IMVI Melanoma | –
SGSGCVF | – | PC3 Prostate | – | –
PGGSRHA | – | SK-MEL-5 Melanoma | – | –
RVAAGGL | – | – | – | T-47D Breast
YYAGGLK | Hop-62-Lung | – | – | –
AAVWWAA | – | DU-145 Prostate | – | –
PLRSFDS | H23-Lung | – | – | –
LGGLGIH | – | – | SF-295 CNS | –

Substance | Cell Line with which the peptide (and its tripeptide motif) is associated | Cell Line (NCI-60 cell line the peptide and its motif are associated with) | Cell Line (NCI-60 cell line the peptide is associated with) | Cell Line the peptide is associated with (peptide recovered from phage library selection on this NCI-60 cell line)
FLLRSSF | SR Leukemia | – | – | –
RGVKLGD | – | – | SW620-Colon | –
LRVSRGL | – | – | – | TK-10 Renal
LKLLSVP | – | – | HT-29 Colon | –
VRLTGVR | – | SK-OV-3-3 Ovarian | – | –
VRLRAVF | – | – | – | TK-10 Renal
GGRVLGQ | – | OVCAR-4 Ovarian | – | –
HKLARGR | EKVX-Lung | – | – | –
QVMMRGS | HL-60-Leukemia | – | – | –
GGYWLRS | – | M14 Melanoma | – | –
NSGSVVS | – | – | – | MDA-MB-231 Breast
RVEAAVP | – | SK-OV-3-3 Ovarian | – | –
GLSRGVL | – | – | – | ACHN Renal
AGLSGSQ | RPMI-8226-Leukemia | – | – | –
GLLSGGT | – | IGROV1 Ovarian | – | –
SAVSESP | – | SK-OV-3-3 Ovarian | – | –
HQAGGVT | – | UACC62 Melanoma | – | –
MRYELRS | – | – | – | SN12C Renal
LSGRVIV | – | – | – | UO31 Renal
FEDLLSL | – | – | MALME-3M Melanoma | –
PRGRLFD | – | – | HT-29 Colon | –
LVSVWSR | – | – | HCT-15 Colon | –
SEDEGAG | H322-Lung | – | – | –

Substance | Cell Line with which the peptide (and its tripeptide motif) is associated | Cell Line (NCI-60 cell line the peptide and its motif are associated with) | Cell Line (NCI-60 cell line the peptide is associated with) | Cell Line the peptide is associated with (peptide recovered from phage library selection on this NCI-60 cell line)
GVSTGFT | K-562-Leukemia | – | – | –
GGSKGSA | – | UACC 257 Melanoma | – | –
RASFRAG | SR Leukemia | – | – | –
RIDAGGG | – | – | SW620-Colon | –
GCGGVRD | – | – | HT-29 Colon | –
ARGRDEG | – | – | – | UO31 Renal
GLRTRQV | Hop-92-Lung | – | – | –
SNHTASL | – | – | SF-295 CNS | –
GSVLGAL | – | – | HT-29 Colon | –
AASPHPG | – | – | – | T-47D Breast
FISAGGW | – | – | – | MDA-MB-231 Breast
SAGVSDS | – | SK-MEL-2 Melanoma | – | –
AAGRIRP | – | – | HCT-15 Colon | –
MFARGWE | CCRF-CEM Leukemia | – | – | –
TRSSLTH | – | – | – | TK-10 Renal
LLSVTSX | – | – | – | SN12C Renal
AGRPGGY | – | PC3 Prostate | – | –
LMLVSGK | – | – | – | NCI/ADR-RES Breast
RAVCEWD | – | – | – | CAIK-1 Renal
GLEGSGG | H23-Lung | – | – | –
TREGGLD | – | – | KM-12C Colon | –
IGASLLG | – | – | SF-268 CNS | –
GSSGLLA | – | – | – | NCI/ADR-RES Breast

Substance | Cell Line with which the peptide (and its tripeptide motif) is associated | Cell Line (NCI-60 cell line the peptide and its motif are associated with) | Cell Line (NCI-60 cell line the peptide is associated with) | Cell Line the peptide is associated with (peptide recovered from phage library selection on this NCI-60 cell line)
DAGGMDL | – | – | HT-29 Colon | –
GRLWYVA | – | DU-145 Prostate | – | –
FIAGGVG | – | – | – | ACHN Renal
MPAGLGV | – | – | – | RXF393 Renal
VGPSVHL | – | 786-0 Renal | – | –
HGLGSGT | RPMI-8226-Leukemia | – | – | –
GHYRASV | – | – | HT-29 Colon | –
GPSWATV | – | – | LOX-IMVI Melanoma | –
RYGVGGL | – | – | HT-29 Colon | –
NAGRGAS | – | – | – | TK-10 Renal
DGLVPVA | – | IGROV1 Ovarian | – | –
GGVLYLE | H226-Lung | – | – | –
DQQEAGS | – | 786-0 Renal | – | –
RSGSSVY | H23-Lung | – | – | –
GSVLHVS | – | – | – | HS 578 T Breast
YRGSMVG | – | – | COLO-205-Colon | –
GWLNAAV | – | UACC 257 Melanoma | – | –
GRSSAGP | – | – | – | MDA-MB-231 Breast
RVGAGAF | – | SK-OV-3-3 Ovarian | – | –
GSSACGA | – | – | U251 CNS | –
QLLSQVY | – | – | – | MCF-7 Breast
IYGGLVI | – | SK-MEL-5 Melanoma | – | –
GWHGPSH | A549-Lung | – | – | –

Substance | Cell Line with which the peptide (and its tripeptide motif) is associated | Cell Line (NCI-60 cell line the peptide and its motif are associated with) | Cell Line (NCI-60 cell line the peptide is associated with) | Cell Line the peptide is associated with (peptide recovered from phage library selection on this NCI-60 cell line)
PSLLRGF | – | UACC62 Melanoma | – | –
PEGGRRP | – | – | – | SN12C Renal
LRYWAAV | – | SK-MEL-2 Melanoma | – | –
ELGLRVP | – | OVCAR-8 Ovarian | – | –
TGGLHWY | – | – | – | TK-10 Renal
EHPAGGM | A549-Lung | – | – | –
ERYYLRS | – | – | – | MCF-7 Breast
WGSSAVK | – | IGROV1 Ovarian | – | –
YWGGSVP | – | – | – | UO31 Renal
HAAHGLV | Hop-92-Lung | – | – | –
LSMLRSA | H322-Lung | – | – | –
LGVRLAS | – | – | – | BT-549 Breast
GGLRVGG | – | PC3 Prostate | – | –
IGWGVLG | – | – | – | BT-549 Breast
DLLRYLA | H322-Lung | – | – | –
GGLMPRY | – | – | – | BT-549 Breast
LGQCGRV | HL-60-Leukemia | – | – | –
LLRPAHG | – | SK-MEL-2 Melanoma | – | –
DLDGRVV | – | – | COLO-205-Colon | –
LGGRQES | – | – | – | ACHN Renal
GGWARAV | – | – | SNB-75 CNS | –
GRLSRAP | – | OVCAR-4 Ovarian | – | –
GSGSVRT | – | – | – | BT-549 Breast

Substance | Cell Line with which the peptide (and its tripeptide motif) is associated | Cell Line (NCI-60 cell line the peptide and its motif are associated with) | Cell Line (NCI-60 cell line the peptide is associated with) | Cell Line the peptide is associated with (peptide recovered from phage library selection on this NCI-60 cell line)
GRGVTIW | – | – | HT-29 Colon | –
NGRGSGW | HL-60-Leukemia | – | – | –
WSISGSV | – | – | – | MDA-MB-231 Breast
WAGSNYS | – | – | SNB-75 CNS | –
AGGRWNL | – | – | HT-29 Colon | –
PTSGRLV | – | PC3 Prostate | – | –
VTDGAGQ | – | – | SF-268 CNS | –
ARGVSAP | – | – | KM-12C Colon | –
LVSSSEP | HL-60-Leukemia | – | – | –
YGESLLR | – | – | SNB-75 CNS | –
AGRGAGG | – | OVCAR-4 Ovarian | – | –
HNGRLEV | Hop-62-Lung | – | – | –
WAGLSPS | Hop-92-Lung | – | – | –
GTLRVGS | – | – | HT-29 Colon | –
ANAASSP | – | SK-MEL-5 Melanoma | – | –
VEYAAGR | CCRF-CEM Leukemia | – | – | –
ASAVSGR | – | – | HT-29 Colon | –
AVHSGRL | – | – | – | ACHN Renal
